According to ChEMBL document CHEMBL3044736, “Synthesis, characterization, solvatochromic properties, and antimicrobial evaluation of 5-acetyl-2-thioxo-dihydro-pyrimidine-4,6-dione-based chalcones” (2013):
≈ marks a conversion by molar mass, not a printed value.

Key:
Format in all cases: functional
[1] = test system: Pseudomonas aeruginosa; assay: Antimicrobial activity against Pseudomonas aeruginosa MTCC 1688 assessed as diameter of growth inhibition zone at 25 ug/ml after 18-24 hr by agar cup diffusion method; conditions: read-out: DIZ
[2] = test system: Trichophyton rubrum; assay: Antimicrobial activity against Trichophyton rubrum MTCC 296 assessed as diameter of growth inhibition zone at 100 ug/ml after 48-96 hr by agar cup diffusion method; conditions: read-out: DIZ
[3] = test system: Candida albicans; assay: Antimicrobial activity against Candida albicans MTCC 227 assessed as diameter of growth inhibition zone at 100 ug/ml after 48-96 hr by agar cup diffusion method; conditions: read-out: DIZ
[4] = test system: Penicillium; assay: Antimicrobial activity against Penicillium wild strain assessed as diameter of growth inhibition zone at 50 ug/ml after 48-96 hr by agar cup diffusion method; conditions: read-out: DIZ
[5] = test system: Pseudomonas aeruginosa; assay: Antimicrobial activity against Pseudomonas aeruginosa MTCC 1688 assessed as diameter of growth inhibition zone at 100 ug/ml after 18-24 hr by agar cup diffusion method; conditions: read-out: DIZ
[6] = test system: Klebsiella pneumoniae; assay: Antimicrobial activity against Klebsiella pneumoniae MTCC 109 assessed as diameter of growth inhibition zone at 100 ug/ml after 18-24 hr by agar cup diffusion method; conditions: read-out: DIZ
[7] = test system: Aspergillus clavatus; assay: Antimicrobial activity against Aspergillus clavatus MTCC 1323 assessed as diameter of growth inhibition zone at 50 ug/ml after 48-96 hr by agar cup diffusion method; conditions: read-out: DIZ
[8] = test system: Staphylococcus aureus; assay: Antimicrobial activity against Staphylococcus aureus MTCC 96 by agar cup diffusion method
[9] = test system: Candida albicans; assay: Antimicrobial activity against Candida albicans MTCC 227 assessed as diameter of growth inhibition zone at 25 ug/ml after 48-96 hr by agar cup diffusion method; conditions: read-out: DIZ
[10] = test system: Trichophyton rubrum; assay: Antimicrobial activity against Trichophyton rubrum MTCC 296 assessed as diameter of growth inhibition zone at 50 ug/ml after 48-96 hr by agar cup diffusion method; conditions: read-out: DIZ
[11] = test system: Aspergillus clavatus; assay: Antimicrobial activity against Aspergillus clavatus MTCC 1323 assessed as diameter of growth inhibition zone at 25 ug/ml after 48-96 hr by agar cup diffusion method; conditions: read-out: DIZ
[12] = test system: Pseudomonas aeruginosa; assay: Antimicrobial activity against Pseudomonas aeruginosa MTCC 1688 assessed as diameter of growth inhibition zone at 50 ug/ml after 18-24 hr by agar cup diffusion method; conditions: read-out: DIZ
[13] = test system: Trichophyton rubrum; assay: Antimicrobial activity against Trichophyton rubrum MTCC 296 assessed as diameter of growth inhibition zone at 250 ug/ml after 48-96 hr by agar cup diffusion method; conditions: read-out: DIZ
[14] = test system: Pseudomonas aeruginosa; assay: Antimicrobial activity against Pseudomonas aeruginosa MTCC 1688 assessed as diameter of growth inhibition zone at 250 ug/ml after 18-24 hr by agar cup diffusion method; conditions: read-out: DIZ
[15] = test system: Klebsiella pneumoniae; assay: Antimicrobial activity against Klebsiella pneumoniae MTCC 109 assessed as diameter of growth inhibition zone at 25 ug/ml after 18-24 hr by agar cup diffusion method; conditions: read-out: DIZ
[16] = test system: Pseudomonas aeruginosa; assay: Antimicrobial activity against Pseudomonas aeruginosa MTCC 1688 by agar cup diffusion method
[17] = test system: Escherichia coli; assay: Antimicrobial activity against Escherichia coli MTCC 443 assessed as diameter of growth inhibition zone at 50 ug/ml after 18-24 hr by agar cup diffusion method; conditions: read-out: DIZ
[18] = test system: Staphylococcus aureus; assay: Antimicrobial activity against Staphylococcus aureus MTCC 96 assessed as diameter of growth inhibition zone at 50 ug/ml after 18-24 hr by agar cup diffusion method; conditions: read-out: DIZ
[19] = test system: Staphylococcus aureus; assay: Antimicrobial activity against Staphylococcus aureus MTCC 96 assessed as diameter of growth inhibition zone at 25 ug/ml after 18-24 hr by agar cup diffusion method; conditions: read-out: DIZ
[20] = test system: Streptococcus pyogenes; assay: Antimicrobial activity against Streptococcus pyogenes MTCC 442 assessed as diameter of growth inhibition zone at 25 ug/ml after 18-24 hr by agar cup diffusion method; conditions: read-out: DIZ
[21] = test system: Candida albicans; assay: Antimicrobial activity against Candida albicans MTCC 227 assessed as diameter of growth inhibition zone at 50 ug/ml after 48-96 hr by agar cup diffusion method; conditions: read-out: DIZ
[22] = test system: Aspergillus clavatus; assay: Antimicrobial activity against Aspergillus clavatus MTCC 1323 assessed as diameter of growth inhibition zone at 100 ug/ml after 48-96 hr by agar cup diffusion method; conditions: read-out: DIZ
[23] = test system: Penicillium; assay: Antimicrobial activity against Penicillium wild strain assessed as diameter of growth inhibition zone at 25 ug/ml after 48-96 hr by agar cup diffusion method; conditions: read-out: DIZ
[24] = test system: Streptococcus pyogenes; assay: Antimicrobial activity against Streptococcus pyogenes MTCC 442 assessed as diameter of growth inhibition zone at 250 ug/ml after 18-24 hr by agar cup diffusion method; conditions: read-out: DIZ
[25] = test system: Escherichia coli; assay: Antimicrobial activity against Escherichia coli MTCC 443 assessed as diameter of growth inhibition zone at 25 ug/ml after 18-24 hr by agar cup diffusion method; conditions: read-out: DIZ
[26] = test system: Aspergillus clavatus; assay: Antimicrobial activity against Aspergillus clavatus MTCC 1323 assessed as diameter of growth inhibition zone at 250 ug/ml after 48-96 hr by agar cup diffusion method; conditions: read-out: DIZ
[27] = test system: Klebsiella pneumoniae; assay: Antimicrobial activity against Klebsiella pneumoniae MTCC 109 by agar cup diffusion method
[28] = test system: Penicillium; assay: Antimicrobial activity against Penicillium wild strain assessed as diameter of growth inhibition zone at 100 ug/ml after 48-96 hr by agar cup diffusion method; conditions: read-out: DIZ
[29] = test system: Penicillium; assay: Antimicrobial activity against Penicillium wild strain assessed as diameter of growth inhibition zone at 250 ug/ml after 48-96 hr by agar cup diffusion method; conditions: read-out: DIZ
[30] = test system: Penicillium; assay: Antimicrobial activity against Penicillium wild strain by agar cup diffusion method
[31] = test system: Candida albicans; assay: Antimicrobial activity against Candida albicans MTCC 227 by agar cup diffusion method
[32] = test system: Escherichia coli; assay: Antimicrobial activity against Escherichia coli MTCC 443 by agar cup diffusion method
[33] = test system: Trichophyton rubrum; assay: Antimicrobial activity against Trichophyton rubrum MTCC 296 by agar cup diffusion method
[34] = test system: Streptococcus pyogenes; assay: Antimicrobial activity against Streptococcus pyogenes MTCC 442 by agar cup diffusion method
[35] = test system: Klebsiella pneumoniae; assay: Antimicrobial activity against Klebsiella pneumoniae MTCC 109 assessed as diameter of growth inhibition zone at 250 ug/ml after 18-24 hr by agar cup diffusion method; conditions: read-out: DIZ
[36] = test system: Streptococcus pyogenes; assay: Antimicrobial activity against Streptococcus pyogenes MTCC 442 assessed as diameter of growth inhibition zone at 100 ug/ml after 18-24 hr by agar cup diffusion method; conditions: read-out: DIZ
[37] = test system: Escherichia coli; assay: Antimicrobial activity against Escherichia coli MTCC 443 assessed as diameter of growth inhibition zone at 100 ug/ml after 18-24 hr by agar cup diffusion method; conditions: read-out: DIZ
[38] = test system: Candida albicans; assay: Antimicrobial activity against Candida albicans MTCC 227 assessed as diameter of growth inhibition zone at 250 ug/ml after 48-96 hr by agar cup diffusion method; conditions: read-out: DIZ
[39] = test system: Staphylococcus aureus; assay: Antimicrobial activity against Staphylococcus aureus MTCC 96 assessed as diameter of growth inhibition zone at 250 ug/ml after 18-24 hr by agar cup diffusion method; conditions: read-out: DIZ
[40] = test system: Aspergillus clavatus; assay: Antimicrobial activity against Aspergillus clavatus MTCC 1323 by agar cup diffusion method
[41] = test system: Streptococcus pyogenes; assay: Antimicrobial activity against Streptococcus pyogenes MTCC 442 assessed as diameter of growth inhibition zone at 50 ug/ml after 18-24 hr by agar cup diffusion method; conditions: read-out: DIZ
[42] = test system: Escherichia coli; assay: Antimicrobial activity against Escherichia coli MTCC 443 assessed as diameter of growth inhibition zone at 250 ug/ml after 18-24 hr by agar cup diffusion method; conditions: read-out: DIZ
[43] = test system: Staphylococcus aureus; assay: Antimicrobial activity against Staphylococcus aureus MTCC 96 assessed as diameter of growth inhibition zone at 100 ug/ml after 18-24 hr by agar cup diffusion method; conditions: read-out: DIZ
[44] = test system: Klebsiella pneumoniae; assay: Antimicrobial activity against Klebsiella pneumoniae MTCC 109 assessed as diameter of growth inhibition zone at 50 ug/ml after 18-24 hr by agar cup diffusion method; conditions: read-out: DIZ
[45] = test system: Trichophyton rubrum; assay: Antimicrobial activity against Trichophyton rubrum MTCC 296 assessed as diameter of growth inhibition zone at 25 ug/ml after 48-96 hr by agar cup diffusion method; conditions: read-out: DIZ

COc1ccc(/C=C/C(=O)C2C(=O)NC(=S)NC2=O)cc1
zone of inhibition at 25 µg/mL [1]: 13 mm | zone of inhibition at 100 µg/mL [2]: 21 mm | zone of inhibition at 100 µg/mL [3]: 24 mm | zone of inhibition at 50 µg/mL [4]: 21 mm | zone of inhibition at 100 µg/mL [5]: 18 mm | zone of inhibition at 100 µg/mL [6]: 14 mm | zone of inhibition at 50 µg/mL [7]: 21 mm | MBC [8]: 250 µg/mL (≈ 821 µM) | MIC [8]: 200 µg/mL (≈ 657 µM) | zone of inhibition at 25 µg/mL [9]: 18 mm | zone of inhibition at 50 µg/mL [10]: 20 mm | zone of inhibition at 25 µg/mL [11]: 20 mm | zone of inhibition at 50 µg/mL [12]: 17 mm | zone of inhibition at 250 µg/mL [13]: 22 mm | zone of inhibition at 250 µg/mL [14]: 21 mm | zone of inhibition at 25 µg/mL [15]: 11 mm | MBC [16]: 125 µg/mL (≈ 411 µM) | MIC [16]: 100 µg/mL (≈ 329 µM) | zone of inhibition at 50 µg/mL [17]: 18 mm | zone of inhibition at 50 µg/mL [18]: 17 mm | zone of inhibition at 25 µg/mL [19]: 13 mm | zone of inhibition at 25 µg/mL [20]: 15 mm | zone of inhibition at 50 µg/mL [21]: 21 mm | zone of inhibition at 100 µg/mL [22]: 23 mm | zone of inhibition at 25 µg/mL [23]: 21 mm | zone of inhibition at 250 µg/mL [24]: 21 mm | zone of inhibition at 25 µg/mL [25]: 15 mm | zone of inhibition at 250 µg/mL [26]: 24 mm | MBC [27]: 250 µg/mL (≈ 821 µM) | MIC [27]: 200 µg/mL (≈ 657 µM) | zone of inhibition at 100 µg/mL [28]: 23 mm | zone of inhibition at 250 µg/mL [29]: 25 mm | MFC [30]: 500 µg/mL (≈ 1640 µM) | MIC [30]: 500 µg/mL (≈ 1640 µM) | MFC [31]: 1000 µg/mL (≈ 3290 µM) | MIC [31]: > 1000 µg/mL | MBC [32]: 250 µg/mL (≈ 821 µM) | MIC [32]: 200 µg/mL (≈ 657 µM) | MFC [33]: > 1000 µg/mL | MIC [33]: > 1000 µg/mL | MBC [34]: 250 µg/mL (≈ 821 µM) | MIC [34]: 200 µg/mL (≈ 657 µM) | zone of inhibition at 250 µg/mL [35]: 17 mm | zone of inhibition at 100 µg/mL [36]: 20 mm | zone of inhibition at 100 µg/mL [37]: 20 mm | zone of inhibition at 250 µg/mL [38]: 24 mm | zone of inhibition at 250 µg/mL [39]: 21 mm | MFC [40]: 1000 µg/mL (≈ 3290 µM) | MIC [40]: 500 µg/mL (≈ 1640 µM) | zone of inhibition at 50 µg/mL [41]: 18 mm | zone of inhibition at 250 µg/mL [42]: 21 mm | zone of inhibition at 100 µg/mL [43]: 18 mm | zone of inhibition at 50 µg/mL [44]: 13 mm | zone of inhibition at 25 µg/mL [45]: 19 mm
